Assay results published in PubChem BioAssay AID651703 (Broad Institute, 2012).

Target: Transforming acidic coiled-coil-containing protein 3 (Homo sapiens) (UniProt Q9Y6A5)
Assay: ARNT/TACC3 interaction disruptors, potency, confirmation, biochemical, AlphaScreen, cherry-picked samples (AID 651703);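 note: TACC3 partner is the GST-tagged E629A mutant dimer; hits lower the signal meaning they disrupt ARNT binding to TACC3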
Settings: AlphaScreen His-ARNT PAS-B / GST-TACC3 binding, luminescence

| SMILES | AC50 [µM] |
| --- | --- |
| COC(=O)C1=COC(C)C2CN3CCc4c([nH]c5cc(OC)c(OC)cc45)C3CC12 (stereo not given) | 67.6 |
| COc1ccccc1Nc1nc(N)nc(CN(C)C2CCCCC2)n1 | 37.7 |
| c1ccc(-c2ccc(SCc3cccnc3)nn2)nc1 | 1.81 |
| Cc1cc(NC(c2cccnc2)c2ccc3cccnc3c2O)no1 (stereo not given) | 1.02 |
| O=C(N[C@@H]1CC[C@@H](CCn2cc(-c3ccccn3)nn2)O[C@@H]1CO)c1cccnc1 | 13.1 |
| CC(=O)N1CCc2[nH]c3ccc(C)cc3c2C1 | 13.9 |
| O=C(NC[C@@H]1[C@H](c2ccccc2)[C@H](CO)N1Cc1ccccn1)C1CCCC1 | 40.7 |
| O=C(Nc1nnc(-c2ccco2)o1)c1ccc(S(=O)(=O)N2CCOCC2)cc1 | 36.1 |
| Oc1cc(-c2ccncc2)cc2cccnc12 | 0.771 |
| O=C(N/N=C/c1cccc2nccnc12)c1ccccc1O | 4.77 |
| COc1ccc(NC(=O)N[C@@H]2CC[C@H](CCn3cc(-c4ccccn4)nn3)O[C@H]2CO)cc1 | 12.7 |
| CC(=O)[C@H]1[C@@H]2C(=O)N(c3cccc(Cl)c3)C(=O)[C@@H]2[C@H]2c3ccccc3C=CN21 | 6.22 |
| Fc1ccc(-c2ccc(CNCc3ccccn3)o2)cc1Cl | 17.5 |
| C/C(=N\NC(=O)C(c1ccccc1)c1ccccc1)c1ccc(O)cc1 | 43.1 |
| NS(=O)(=O)c1ccc(N=Nc2c[nH]c(=O)c(O)c2)cc1 | 57.9 |
| Cc1[nH]n(-c2ccccc2)c(=O)c1/C=N/NC(=O)COc1ccccc1[N+](=O)[O-] | 15.8 |
| Oc1c(CN2CCN(c3ccccc3)CC2)cc(Br)c2cccnc12 | 1.07 |
| Nc1ccccc1C(=O)N=Nc1[nH]c(N)c2ccccc12 | 10.3 |
| CCCOc1ccc(/C=N/Nc2cc(N3CCOCC3)ncn2)c(O)c1 | 8 |
| O=C(NCCCn1ccnc1)C(=O)NCC(c1ccco1)N1CCN(c2ccccc2)CC1 (stereo not given) | 6.85 |
| C=CCn1c(Cc2csc(N)n2)nnc1SCC(=O)Nc1ccc(C(=O)OCC)cc1 | 14.1 |
| O=C(NCCCn1ccnc1)C(F)(F)C(F)(F)C(=O)NCCCn1ccnc1 | 38.5 |
| O=C(CNCc1ccccn1)N1CCc2ccccc2C1 | 3.23 |

| SMILES | AC50 [µM] |
| --- | --- |
| CN(C)CCCNc1cc(O)c2ncccc2c1 | 0.583 |
| CCCC(=O)NC(c1ccc(N(C)C)cc1)c1ccc2cccnc2c1O (stereo not given) | 5.3 |
| CCCCC(=O)NC(c1cccc([N+](=O)[O-])c1)c1ccc2cccnc2c1O (stereo not given) | 4.22 |
| N#Cc1ccsc1NC(=O)c1ccccn1 | 21.9 |
| O=C(NCCCNCCCNC(=O)c1ccc(/C=N/O)nc1)c1ccc(/C=N/O)nc1 | 4.96 |
| Nc1nc(CN2CCCCCC2)nc(Nc2ccccc2)n1 | 59 |
| CC(NC(=O)c1ccco1)C(=O)Nc1nc(-c2ccccn2)cs1 (stereo not given) | 4.52 |
| c1ccc(-c2csc(Nc3nc(-c4ccccn4)nnc3-c3ccccc3)n2)cc1 | 0.897 |
| Cc1nnc(-c2ccccc2)c(=O)n1/N=C/c1c(O)ccc2ccccc12 | 49.2 |
| COc1cc([N+](=O)[O-])cc(/C=N/NC(=O)Cn2cncn2)c1O | 5.87 |
| CCCCCc1cc(=O)oc2c(C(CCN(CC)CC)c3ccc(N(C)C)cc3)c(OC)cc(OC)c12 (stereo not given) | 5.02 |
| Cc1cc([N+](=O)[O-])cc(/C=N\NC(=O)C2COc3ccccc3O2)c1O (stereo not given) | 36.3 |
| Cc1[nH][nH]c(=O)c1C(c1ccc(-c2ccc(F)cc2)o1)c1c(C)[nH][nH]c1=O | 19.6 |
| COCc1cc(=O)[nH]c(Nc2nc3ccc(C)cc3o2)n1 | 7.59 |
| O=C(Oc1c(CN2CCOCC2)cc(Cl)c2cccnc12)c1ccccc1Br | 10.3 |
| CC1CC1C(=O)Nc1nc(-c2ccccn2)cs1 (stereo not given) | 15.2 |
| O=C(c1ccccn1)N1CC[C@@H]2[C@H](CO)Nc3ccc(Br)cc3[C@@H]21 | 24.1 |
| c1ccc(-c2nc3ccccn3c2NC2CCCC2)nc1 | 13.9 |
| C[C@H]1c2cccc(O)c2C(O)=C2C(=O)[C@]3(O)C(O)=C(C(N)=O)C(=O)[C@@H](N(C)C)C3[C@@H](O)C21 (stereo not given in full) | 33.5 |
| COc1ccc(OC)c(NC(=O)CSc2ccc3nnc(-c4ccccn4)n3n2)c1 | 34.3 |
| CCN(C(=O)COc1cccc2cccnc12)C1CCS(=O)(=O)C1 (stereo not given) | 45.1 |
| CC(=O)NC(c1cccs1)c1cc([N+](=O)[O-])c2cccnc2c1O (stereo not given) | 2.71 |
| CC(C)(C)c1ccc(OCCNC(=O)c2ncn[nH]2)cc1 | 15.8 |

| SMILES | AC50 [µM] |
| --- | --- |
| CC(NC1=CC(=O)c2cccnc2C1=O)C(O)c1ccccc1 (stereo not given) | 15.5 |
| COc1cc(-c2nnc(NC(=O)CS(=O)(=O)c3ccc(F)cc3)o2)cc(OC)c1OC | 24.3 |
| Cc1csc(NC(=O)CSc2ccc(-c3ccccn3)nn2)n1 | 3.14 |
| O=C(CSc1ccc2nnc(-c3ccccn3)n2n1)Nc1nccs1 | 11.2 |
| CC(=O)NC(c1cc(Cl)c2cccnc2c1O)C(C)C (stereo not given) | 1.47 |
| Cc1ccccc1CS(=O)(=O)Cc1ccc(C(=O)NCc2ccccn2)o1 | 31.6 |
| O=C(N[C@H]1CC[C@@H](CCn2cc(-c3ccccn3)nn2)O[C@@H]1CO)c1ccncc1 | 15.8 |
| O=C(N/N=C/c1cc(Cl)ccc1O)c1cccnc1 | 7.68 |
| COc1cccc(C(=O)Nc2nnc(-c3cccs3)o2)c1 | 21.4 |
| COc1cc(/C=N/N(CCO)C2=NS(=O)(=O)c3ccccc32)cc(OC)c1OC | 15.6 |
| O=C(N[C@H]1CC[C@@H](CCn2cc(-c3ccccn3)nn2)O[C@@H]1CO)c1ccccc1 | 15.5 |
| O=C(N[C@@H]1CC[C@H](CCn2cc(-c3ccccn3)nn2)O[C@@H]1CO)c1ccccc1 | 20.7 |
| CCOC(=O)N1CCN(C(c2cccnc2)c2ccc3cccnc3c2O)CC1 (stereo not given) | 4.64 |
| Cc1cc(C(=O)N/N=C/c2c(CO)cnc(C)c2O)c2ccccc2n1 | 3.5 |
| O=c1cc(-c2ccc(O)cc2)oc2c(O)c(O)c(O)c(O)c12 | 63 |
| O=S(=O)(Nc1cccc2cccnc12)c1ccc(S(=O)(=O)N2CCCC2)cc1 | 23.3 |
| O=C(O)CSc1c(O)c2ccccc2[nH]c1=O | 34.5 |
| Cc1ccc(S(=O)(=O)n2oc(=O)c(C3CCCCC3)c2N)cc1 | 16 |
| c1ccc(-c2cn3c(n2)CCc2ccc4cccnc4c2-3)cc1 | 21.2 |
| C=CCNc1nc(-c2ccccn2)nnc1-c1ccccc1 | < 0.5 |
| COc1cccc(/C=N/Nc2ccnc(=O)[nH]2)c1O | 9.05 |
| O=C(CSc1n[nH]c(-c2ccccn2)n1)Nc1ccc(F)cc1 | 1.09 |
| Cc1ccc(-c2cnc(N)n2C)cc1C | 41.1 |

| SMILES | AC50 [µM] |
| --- | --- |
| O=C(N[C@@H]1CC[C@H](CCn2cc(-c3ccccn3)nn2)O[C@H]1CO)c1ccncc1 | 7.57 |
| COc1ccc2nc(/N=C/c3c(C)[nH]n(-c4ccc(C)cc4)c3=O)sc2c1 | 46.3 |
| COc1cccc(/C=N/n2c(-c3n[nH]c4c3CCC4)n[nH]c2=S)c1O | 28.7 |
| O=C(O)c1ccc(C2CCCCC2)cn1 | 3.12 |
| O=C(CSc1ccc(-c2ccccn2)nn1)N1CCCC1 | 3.05 |
| CCC(=O)NC(c1ccc(N(C)C)cc1)c1c(O)ccc2ccccc12 (stereo not given) | 35.5 |
| COC(=O)c1ccc(NC(=O)CSc2ccc(-c3ccccn3)nn2)cc1 | 2.57 |
| O=C(c1ccccn1)N1CC[C@@H]2[C@H]1c1cc(Br)ccc1N[C@@H]2CO | 27.7 |
| OCCCNc1nc(-c2ccccn2)nnc1-c1ccccc1 | < 0.5 |
| c1ccc(-c2n[nH]c(-c3ccccn3)n2)nc1 | < 0.5 |
| CCC(=O)NC(c1cc(Cl)c2cccnc2c1O)C1CC1 (stereo not given) | 9.34 |
| c1ccc(-c2nnc(-c3ccccn3)nc2N2CCN(c3ccncc3)CC2)cc1 | < 0.5 |
| COc1cc(NCCCCCCN)c2ncccc2c1OC | 16.1 |
| O=C(O)c1cn[nH]c1-n1cnnn1 | 40.6 |
| COc1ccc(O)c(/C=N\NC(=O)CCn2nnc3ccccc32)c1 | 33.4 |
| COc1cccc(/C=N/NC(=O)C(=O)N2CCCCCC2)c1O | 18.8 |
| Oc1cc(Nc2ccncc2)cc2cccnc12 | 0.676 |
| CN1CCc2c(sc3c2C(=O)NC(c2ccccn2)N3)C1 (stereo not given) | 5.51 |
| CCOC(=O)CSc1cccc2cccnc12 | 4.59 |
| O=C(Cn1cnc([N+](=O)[O-])n1)N/N=C/c1ccc(O)cc1O | 4.97 |
| CC1CN(Cc2ccc(O)c3ncccc23)CC(C)O1 (stereo not given) | 2.59 |
| COc1cccc(/C=N/NC(=O)c2ccc3nc[nH]c3c2)c1O | 23.3 |
| CC(Oc1ccccc1)C(=O)Nc1nc(-c2ccccn2)cs1 (stereo not given) | 13.2 |

| SMILES | AC50 [µM] |
| --- | --- |
| Nc1ncnc(Oc2cccc3cccnc23)c1[N+](=O)[O-] | 11.1 |
| O=C(Nc1ccc(N2CCN(C(=O)c3ccccc3F)CC2)cc1)c1ncn[nH]1 | 17.8 |
| O=C(CSc1cccc2cccnc12)Nc1cc(C(=O)O)cc(C(=O)O)c1 | 17.9 |
| CCN(CC)c1ccc(/C=N/NC(=O)c2ccc3nc[nH]c3c2)c(O)c1 | 12.5 |
| Cc1ccc(C)c(CSc2ccc3nnc(-c4ccccn4)n3n2)c1 | 23.3 |
| COc1cc(OC)cc(C(=O)Oc2c(CN3CCOCC3)cc(Cl)c3cccnc23)c1 | 31.1 |
| Cc1ccc(Cn2cccc(NS(C)(=O)=O)c2=O)cc1 | 64.7 |
| C/C(CC(=O)Nc1ccc(N(C)C)cc1)=N\NC(=O)c1ccccn1 | 12.3 |
| O=C(CN1C(=O)COc2ccccc21)Nc1ccc(F)cc1 | 3.96 |
| Oc1c(C(c2ccc(Cl)cc2)N2CCCC2)cc(Cl)c2cccnc12 (stereo not given) | 1.36 |
| CCC(COC)Oc1cc(NCc2ccccc2)c2ncn(C(C)C)c2c1 (stereo not given) | 23.9 |
| O=C(CN1C(=O)C2C3C=CC(C3)C2C1=O)Nc1nc(-c2ccccn2)cs1 (stereo not given) | 6.76 |
| Cc1cc(NC(c2ccc(Cl)cc2)c2ccc3cccnc3c2O)no1 (stereo not given) | 10.2 |
| CCN(CC)c1ccc(Nc2nc(N3CCOCC3)c3ccccc3n2)cc1 | 4.99 |
| C=C1c2cccc(O)c2C(=O)C2C(=O)[C@]3(O)C(=O)C(C(N)=O)C(=O)[C@@H](N(C)C)[C@@H]3[C@@H](O)[C@H]12 (stereo not given in full) | 21.2 |
| CC(=O)Nc1cccc(C(=O)O)n1 | 12.2 |
| Cc1cc(NC(=O)CC(C)C)c(=O)n(Cc2ccccc2F)c1 | 9.6 |
| CCOC(=O)c1c(C)[nH]c(N=Nc2cccc(C)c2)c1C | 17.8 |
| COc1cc(CNCc2ccccn2)ccc1OCC(=O)NC(C)(C)C | 26.4 |
| O=C(Oc1c(CN2CCOCC2)cc(Cl)c2cccnc12)c1cccs1 | 15.2 |
| Cc1cccc(NC(=O)CSc2cccc3cccnc23)c1 | 21.8 |
| O=C(COc1ccc([N+](=O)[O-])cc1)Nc1nc(-c2ccccn2)cs1 | 6.57 |
| Oc1c(C(Nc2ccccn2)c2cccnc2)cc(Cl)c2cccnc12 (stereo not given) | 5.67 |
